Results: patent publication US9765049B2, “N-cycloalkyl-N-[(fusedphenyl)methylene]-(thio)carboxamide derivatives” (BAYER CROPSCIENCE AG, priority 2013, dated 2017)
Like-named read-outs stand apart in the source and are kept apart here.

Experiments:
Septoria tritici = test: In vivo preventive test on Septoria tritici (wheat); conditions: 500 ppm, wheat plants, preventive spray, evaluated 24 days after inoculation
Method: (§1) Example E: In Vivo Preventive Test on Septoria tritici (Wheat) [table] The active ingredients are made soluble and homogenized in a mixture of Dimethyl sulfoxide/Acetone/Tween®80 and then diluted in water to the desired concentration. The young plants of wheat are treated by spraying the active ingredient prepared as described above. Control plants are treated only with an aqueous solution of Acetone/Dimethyl sulfoxide/Tween® 80. After 24 hours, the plants are contaminated by spraying the leaves with an aqueous suspension of Septoria tritici spores. The contaminated wheat plants are incubated for 72 hours at 18° C. and at 100% relative humidity and then for 21 days at 20° C. and at 90% relative humidity.

Puccinia recondita = test: In vivo preventive test on Puccinia recondita (brown rust on wheat); conditions: 500 ppm, wheat plants, preventive spray, evaluated 11 days after inoculation
Method: as §1, with “C:” for “E:”, “Puccinia recondita (Brown Rust on Wheat)” for “Septoria tritici (Wheat)”, “Puccinia recondita” for “Septoria tritici”, “spores.” for “spores. The contaminated wheat plants are incubated for 72 hours at 18° C. and at 100% relative humidity and then for 21 days at 20° C. and at 90% relative humidity.”

Pyrenophora teres = test: In vivo preventive test on Pyrenophora teres (net blotch on barley); conditions: 500 ppm, barley plants, preventive spray, evaluated 14 days after inoculation
Method: (§2) Example D: In Vivo Preventive Test on Pyrenophora teres (Net Blotch on Barley) [table] The active ingredients are made soluble and homogenized in a mixture of Dimethyl sulfoxide/Acetone/Tween®80 and then diluted in water to the desired concentration. The young plants of barley are treated by spraying the active ingredient prepared as described above. Control plants are treated only with an aqueous solution of Acetone/Dimethyl sulfoxide/Tween® 80. After 24 hours, the plants are contaminated by spraying the leaves with an aqueous suspension of Pyrenophora teres spores.

[1] = log P by HPLC on reversed-phase column (C 18), EEC Directive 79/831 Annex V.A8; format: physicochemical; conditions: for logP: Table 1, HPLC, 40° C., 0.1% aqueous formic acid and acetonitrile
Method: In table 1, the log P values were determined in accordance with EEC Directive 79/831 Annex V.A8 by HPLC (High Performance Liquid Chromatography) on a reversed-phase column (C 18), using the method described below: Temperature: 40° C.; Mobile phases: 0.1% aqueous formic acid and acetonitrile; linear gradient from 10% acetonitrile to 90% acetonitrile. Calibration was carried out using unbranched alkan-2-ones (comprising 3 to 16 carbon atoms) with known log P values (determination of the log P values by the retention times using linear interpolation between two successive alkanones). lambda-max-values were determined using UV-spectra from 200 nm to 400 nm and the peak values of the chromatographic signals.

[2] = tested on: Fusarium nivale (var. majus); test: Efficacy against Fusarium nivale (var. majus) (wheat), curative test; format: in vivo; conditions: for Efficacy: evaluated 5 days after inoculation
Method: Example I: Efficacy Against Fusarium nivale (Var. Majus) (Wheat) [table] To produce a suitable preparation of active compound, 1 part by weight of active compound or active compound combination is mixed with the stated amounts of solvent and emulsifier, and the concentrate is diluted with water to the desired concentration. […] After the spray coating has dried on, the plants remain in a greenhouse under translucent incubation cloches at a temperature of approximately 10° C. and a relative atmospheric humidity of approximately 100%.

Botrytis cinerea = test: In vivo preventive test Botrytis cinerea (grey mould); conditions: gherkin plants
Method: as §1, with “B:” for “E:”, “Botrytis cinerea (Grey Mould)” for “on Septoria tritici (Wheat)”, “gherkin” for “wheat”, “Botrytis cinerea” for “Septoria tritici”, “4 to 5” for “72 hours at 18° C. and at 100% relative humidity and then for 21”, “17°” for “20°”

Pyricularia oryzae = format: in vivo; conditions: dose 500 ppm, rice plants, preventive spray, evaluated 6 days after inoculation
Sphaerotheca fuliginea = test: In vivo preventive test on Sphaerotheca fuliginea (powdery mildew on cucurbits); conditions: 500 ppm, gherkin plants, preventive spray, evaluated 15 days after inoculation
Method: as §2, with “F:” for “D:”, “Sphaerotheca fuliginea (Powdery Mildew” for “Pyrenophora teres (Net Blotch”, “Cucurbits)” for “Barley)”, “gherkin” for “barley”, “Sphaerotheca fuliginea” for “Pyrenophora teres”

Uromyces appendiculatus = test: In vivo preventive test on Uromyces appendiculatus (bean rust); conditions: bean plants
Method: as §2, with “G:” for “D:”, “Uromyces appendiculatus (Bean Rust)” for “Pyrenophora teres (Net Blotch on Barley)”, “bean” for “barley”, “Uromyces appendiculatus” for “Pyrenophora teres”

Alternaria brassicae = test: In vivo preventive test on Alternaria brassicae (leaf spot on radish); conditions: 500 ppm, radish plants, preventive spray, evaluated 6 days after inoculation
Method: as §1, with “A:” for “E:”, “Alternaria brassicae (Leaf Spot on Radish)” for “Septoria tritici (Wheat)”, “radish” for “wheat”, “Alternaria brassicae” for “Septoria tritici”, “6” for “72 hours at 18° C. and at 100% relative humidity and then for 21”, “100%” for “90%”

[3] = Table B, 500 ppm, preventive spray, evaluated 4 to 5 days after inoculation
[4] = Table G, 500 ppm, preventive spray, evaluated 11 days after inoculation

Row | SMILES | Efficacy (Septoria tritici) [%] | Efficacy (Puccinia recondita) [%] | Efficacy (Pyrenophora teres) [%] | logP [1] | Efficacy ([2]; dose 250 ppm) [%] | Efficacy ([2]; dose 500 ppm) [%] | protection ([2]; dose of 250 ppm and 500 ppm) | Efficacy (Botrytis cinerea; Table B2, dose 100 ppm) [%] | Efficacy (Botrytis cinerea; Table B2, dose 500 ppm) | Efficacy (Botrytis cinerea; [3]) [%] | protection (Botrytis cinerea; dose of 100 ppm and 500 ppm) | Efficacy (Pyricularia oryzae) [%] | Efficacy (Pyricularia oryzae; listed as 1.01) | Efficacy (Sphaerotheca fuliginea) [%] | Efficacy (Uromyces appendiculatus; Table G2, dose 100 ppm) [%] | Efficacy (Uromyces appendiculatus; Table G2, dose 100 ppm, listed as 1.01) | Efficacy (Alternaria brassicae) [%] | Efficacy (Uromyces appendiculatus; [4]) [%] | chromatographic logP [1]
1 | Cn1nc(C(F)F)c(C(=O)N(Cc2cccc3c2C2CCC3C2)C2CC2)c1F (stereo not drawn) [I.01] | 100 | 98 | 100 | 3.87 | 100 | 100 | total protection | 98 | 100/100 | 100 | at least 98% | 75 | at least 70% | 100 | 99 | at least 95% | 81 |  | 
2 | Cn1nc(C(F)F)c(C(=S)N(Cc2cccc3c2C2CCC3C2)C2CC2)c1F (stereo not drawn) [I.02] | 100 | 97 |  | 4.64 |  |  |  |  |  | 97 |  |  |  | 100 |  |  | 79 | 100 | 
3 | Cn1nc(C(F)F)c(C(=O)N(Cc2cccc3c2C2C=CC3C2)C2CC2)c1F (stereo not drawn) [I.04] | 98 |  | 100 | 3.55 |  |  |  |  |  | 97 |  |  |  | 100 |  |  | 83 |  | 
4 | Cn1cc(C(=O)N(Cc2cccc3c2C2CCC3C2=C(Cl)Cl)C2CC2)c(C(F)F)n1 (stereo not drawn) [I.07] | 97 |  | 97 | 4.13 |  |  |  |  |  |  |  |  |  | 98 |  |  | 97 |  | 
5 | Cn1nc(C(F)F)c(C(=O)N(Cc2cccc3c2C2CCC3C2=C(Cl)Cl)C2CC2)c1F (stereo not drawn) [I.08, N-cyclopropyl-N-([9-(dichloromethylene)-1,2,3,4-tetrahydro-1,4-methanonaphthalen-5-yl]methyl)-3-(difluoromethyl)-5-fluoro-1-methyl-1H-pyrazole-4-carboxamide] | 100 | 83 | 97 |  |  |  |  |  |  | 100 |  |  |  | 100 |  |  | 100 |  | 4.51
6 | Cn1nc(C(F)F)c(C(=S)N(Cc2cccc3c2C2CCC3C2=C(Cl)Cl)C2CC2)c1F (stereo not drawn) [I.11] | 100 | 88 |  | 5.23 |  |  |  |  |  | 100 |  |  |  | 100 |  |  |  | 84 | 
